How the values were obtained:
[1] = target: monoclonal antibody A5, specific for (raised against) the phosphonate hapten 3; test: Fluorescence quenching binding of inhibitor to antibody A5; conditions: from fluorescence quenching experiments; inhibitor of the antibody-catalyzed reaction
Procedure: (§1) Greater than 25 turnovers were measured with no apparent change in Vmax.

[2] = test system: monoclonal antibody A5, specific for (raised against) the phosphonate hapten 3; test: Antibody A5-catalysed NaBH3CN-dependent reduction of ketoamide 1, steady-state kinetics (HPLC, Lineweaver Burk); type: biochemical; conditions: substrate ketoamide 1; 13μM antibody, 1mM NaBH3CN, 22° C, 50mM NaCl, 50mM MES buffer, 10% methanol
Procedure: Monoclonal antibodies specific for the phosphonate 3 were purified to homogeneity by chromatography on protein-A coupled sepharose, as determined by polyacrylamide gel electrophoresis. Eight of these antibodies were assayed for their ability to reduce the ketoamide 1 by high performance liquid chromatography (HPLC). The (S)-(--)-α-methylbenzylamine group was incorporated into the ketoacid substrate to facilitate analysis of reaction specificity, it having previously been shown that antibodies specific for the phosphonate 3 are relatively insensitive to substitutions in the aliphatic linker. The ketoamide 1 was prepared by a modification of the method of Westerberg and coworkers (Westerberg, D.A., et aL, J. Med Chem. 1989, 32, 236) for the preparation of 4-nitrophenylpyruvic acid. […]
Consequently, all kinetic parameters were measured in the presence of 13μM antibody, 1mM NaBH3 CN at 22° C in 50mM NaCl, 50mM MES buffer. […] Initial reaction rates were determined by measuring the amounts of 1 and 2 (both diastereomers) relative to a p-cresol internal standard using analytical reverse-phase HPLC (Rainin CYNAMAX MICROSORB C18, a common silica-C18 HPLC column packing, with a continuous phase consisting of 40-80% of TFA/CH3 CN in 0.1% aqueous TFA).
as §1

| Km [2] [µM] | SMILES | Kd [1] [nM] | κcat [2] [min⁻¹] |
| --- | --- | --- | --- |
|  | COP(=O)(O)Oc1ccc([N+](=O)[O-])cc1 [4-nitrophenyl methylphosphate] | 610 |  |
| 1240 | CC(NC(=O)C(=O)Cc1ccc([N+](=O)[O-])cc1)c1ccccc1 (stereo not drawn) [compound 1, 1-(p-nitrobenzyl)-2-(α-methyl-benzylamino)ethanedione] |  | 0.104 |
